Results published in US10975037B2 (priority 2018, dated 2021).
Structures can show the parent of a compound that is named as a salt.

Experiments:
[1] = target: human RORγt ligand binding domain (RORγt LBD) (Homo sapiens (Human), UniProt P51449); assay: RORγt ThermoFluor® assay (thermal shift binding); conditions: ThermoFluor® Assay, Kd
Method: This approach is applicable to a wide variety of systems, and rigorous in theoretical interpretation through quantitation of equilibrium binding constants (KD).
The shift in the melting point described as a ΔTm is proportional to the concentration and affinity of the ligand.
RORγt ThermoFluor® Assay Construct
Reference wells contained RORγt without compounds, and the assay conditions were as follows: • 0.065 mg/mL RORγt • 60 μM 1,8-ANS • 100 mM Hepes, pH 7.0 • 10 mM NaCl • 2.5 mM GSH • 0.002% Tween-20
Project compounds were arranged in a pre-dosed mother plate (Greiner Bio-one) wherein compounds are serially diluted in 100% DMSO by 1:2 from a high concentration of 10 mM over 12 columns within a series (column 12 is a reference well containing DMSO, no compound). The compounds were robotically dispensed directly into assay plates (1×=46 nL) using a Hummingbird capillary liquid handling instrument (Digilab). Following compound dispense, protein and dye in buffer was added to achieve the final assay volume of 3 μL, followed by 1 μL of silicone oil.

[2] = target: full-length human RORγt (Homo sapiens (Human), UniProt P51449); assay: RORγt (full-length human) reporter assay, conditions A or B, HEK293T cells; type: cell-based; conditions: for inhibition at 2 µM: 2 μM compound concentration; for IC50: RORγt (FL) Reporter Assay A or B, IC50, HEK293T cells; for inhibition at 6 µM: read-out: RORγt (FL) Reporter Assay A or B, % inhibition @ 6 μM, 6 μM compound concentration; for inhibition at 3 µM: 3 μM compound concentration (footnote *); for inhibition at 0.67 µM: 0.67 μM compound concentration (footnote ****)
Method: RORγt (Full-Length Human) Reporter Assay:
(§1) HEK293T cells were plated at 35,000 per well in 96-well plate in medium of DMEM with 10% FBS. […] After overnight (16 to 20 hours) incubation, media were removed and cells were lysed with 50 L Glo Lysis Buffer (Promega) for 10-15 minutes followed by 10 minute incubation with 50 μL Dual Glo reagent (Promega) at room temperature. Firefly luciferase luminescence was measured using a BMG Pherastar plate reader. To each well, 50 μL Stop and Glo reagent was added and incubated for 10 minutes at room temperature. Renilla luminescence was measured using a BMG Pherastar plate reader. To calculate the effect of compounds on RORγt activity, firefly values were normalized against values of DMSO only and values of reference compound at saturating concentration, then further normalized against Renilla signals. IC50s were generated by plotting final Renilla normalized data against compound concentration and percent inhibition was calculated against DMSO control.
as §1, with “at 8750 cells” for “at 35,000”, “in 384-well” for “in 96-well”, “with 20” for “with 50”, “well, 20” for “well, 50”

[3] = HEK-293T, read-out: RORγt (FL) Reporter Assay A or B, % inhibition

Chain of full-length human RORγt (P51449 other isoform, or with tags, fused parts or gaps): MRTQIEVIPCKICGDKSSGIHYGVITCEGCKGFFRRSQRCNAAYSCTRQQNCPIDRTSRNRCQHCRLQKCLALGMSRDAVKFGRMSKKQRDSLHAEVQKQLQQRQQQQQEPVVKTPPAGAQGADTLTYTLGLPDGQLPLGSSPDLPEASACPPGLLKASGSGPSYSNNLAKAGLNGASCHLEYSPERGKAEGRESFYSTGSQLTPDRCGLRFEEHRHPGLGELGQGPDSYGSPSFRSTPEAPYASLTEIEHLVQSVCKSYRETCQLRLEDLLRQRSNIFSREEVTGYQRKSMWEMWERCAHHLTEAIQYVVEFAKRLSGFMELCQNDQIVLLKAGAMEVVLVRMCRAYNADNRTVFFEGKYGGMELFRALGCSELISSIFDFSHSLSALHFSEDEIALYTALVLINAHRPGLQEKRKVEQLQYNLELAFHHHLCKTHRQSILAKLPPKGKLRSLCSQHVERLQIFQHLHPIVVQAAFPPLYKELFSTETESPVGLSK
Chain of human RORγt ligand binding domain (RORγt LBD) (P51449 other isoform, or with tags, fused parts or gaps): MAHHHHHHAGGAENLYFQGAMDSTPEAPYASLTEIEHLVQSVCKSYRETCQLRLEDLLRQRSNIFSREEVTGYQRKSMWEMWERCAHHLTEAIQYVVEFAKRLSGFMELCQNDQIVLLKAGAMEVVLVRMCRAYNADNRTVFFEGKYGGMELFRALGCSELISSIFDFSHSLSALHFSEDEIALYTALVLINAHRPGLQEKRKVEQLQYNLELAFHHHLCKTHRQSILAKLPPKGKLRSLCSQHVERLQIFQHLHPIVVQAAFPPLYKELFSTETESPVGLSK

SMILES	Kd [1] [nM]	inhibition at 2 µM [2, 3] [%]	IC50 [2] [nM]	inhibition at 6 µM ([2]; HEK-293T) [%]	inhibition at 3 µM [2, 3] [%]	inhibition at 0.67 µM [2, 3] [%]	inhibition at […] ([2]; HEK-293T, 0.33 μM compound concentration (footnote *****), read-out: RORγt (FL) Reporter Assay A or B, % inhibition) [%]	inhibition at 1 µM ([2]; HEK-293T, 1 μM compound concentration (footnote ***), read-out: RORγt (FL) Reporter Assay A or B, % inhibition) [%]
CCn1nc(C(=O)NC[C@]2(CO)CC[C@@H](S(C)(=O)=O)CC2)c(Cl)c1-c1ccc(N[C@H](C)C(F)(F)F)cc1OC (relative stereo) [Example 93, 4-Chloro-1-ethyl-N-(((1s*,4S*)-1-(hydroxymethyl)-4-(methylsulfonyl)cyclohexyl)methyl)-5-(2-methoxy-4-(((R)-1,1,1-trifluoropropan-2-yl)amino)phenyl)-1H-pyrazole-3-carboxamide]	11	96	30	–	–	–	–	–
CCOC(=O)[C@]1(CNC(=O)c2nn(CC)c(-c3ccc(N[C@H](C)C(F)(F)F)cc3OC)c2Cl)CC[C@@H](S(C)(=O)=O)CC1 (relative stereo) [Example 95, Ethyl (1r*,4R*)-1-((4-chloro-1-ethyl-5-(2-methoxy-4-(((R)-1,1,1-trifluoropropan-2-yl)amino)phenyl)-1H-pyrazole-3-carboxamido)methyl)-4-(methylsulfonyl)cyclohexane-1-carboxylate]	110	76	380	–	–	–	–	–
CCn1nc(C(=O)NC[C@]2(C(=O)O)CC[C@H](S(C)(=O)=O)CC2)c(Cl)c1-c1ccc(N[C@H](C)C(F)(F)F)cc1OC (relative stereo) [Example 96, (1r*,4R*)-1-((4-Chloro-1-ethyl-5-(2-methoxy-4-(((R)-1,1,1-trifluoropropan-2-yl)amino)phenyl)-1H-pyrazole-3-carboxamido)methyl)-4-(methylsulfonyl)cyclohexane-1-carboxylic Acid]	25000	–	> 6000	-10	–	–	–	–
CCn1nc(C(=O)NC[C@]2(C(=O)O)CC[C@@H](S(C)(=O)=O)CC2)c(Cl)c1-c1ccc(N[C@H](C)C(F)(F)F)cc1OC (relative stereo) [Example 97, (1s*,4S*)-1-((4-Chloro-1-ethyl-5-(2-methoxy-4-(((R)-1,1,1-trifluoropropan-2-yl)amino)phenyl)-1H-pyrazole-3-carboxamido)methyl)-4-(methylsulfonyl)cyclohexane-1-carboxylic Acid]	180	–	730	94	–	–	–	–
CCn1nc(C(=O)NC[C@H]2CC[C@H](S(C)(=O)=O)CO2)c(Cl)c1-c1ccc(CC(C)(C)C(F)(F)F)cc1OC(F)F (single isomer, unassigned) [Example 15, 4-Chloro-5-(2-(difluoromethoxy)-4-(3,3,3-trifluoro-2,2-dimethylpropyl)phenyl)-1-ethyl-N-(((2R*,5S)-5-(methylsulfonyl)tetrahydro-2H-pyran-2-yl)methyl)-1H-pyrazole-3-carboxamide]	0.13	–	5.4	–	–	113	–	–
CCn1nc(C(=O)NC[C@@H]2CC[C@@H](S(C)(=O)=O)CO2)c(Cl)c1-c1ccc(CC(C)(C)C(F)(F)F)cc1OC(F)F (single isomer, unassigned) [Example 16, 4-Chloro-5-(2-(difluoromethoxy)-4-(3,3,3-trifluoro-2,2-dimethylpropyl)phenyl)-1-ethyl-N-(((2S*,5R*)-5-(methylsulfonyl)tetrahydro-2H-pyran-2-yl)methyl)-1H-pyrazole-3-carboxamide]	0.19	–	4.8	–	–	105	–	–
CCCn1nc(C(=O)NC[C@]2(O)CC[C@@H](S(C)(=O)=O)CC2)c(Cl)c1-c1ccc(C[C@H](C)C(F)(F)F)cc1OC (single isomer, unassigned) [Example 40, 4-Chloro-N-(((1s,4R)-1-hydroxy-4-(methylsulfonyl)cyclohexyl)methyl)-5-(2-methoxy-4-((S*)-3,3,3-trifluoro-2-methylpropyl)phenyl)-1-propyl-1H-pyrazole-3-carboxamide]	0.71	99	13	–	–	–	–	–
CCCn1nc(C(=O)NC[C@H]2CC[C@H](S(C)(=O)=O)CC2)c(Cl)c1-c1ccc(C[C@H](C)C(F)(F)F)cc1OC (single isomer, unassigned) [Example 41, 4-Chloro-5-(2-methoxy-4-((S*)-3,3,3-trifluoro-2-methylpropyl)phenyl)-N-(((1r,4S)-4-(methylsulfonyl)cyclohexyl)methyl)-1-propyl-1H-pyrazole-3-carboxamide]	0.28	–	8	–	–	98	–	–

Second part, the compound after the results:

Kd [1] [nM]	inhibition at 2 µM [2, 3] [%]	IC50 [2] [nM]	inhibition at 6 µM ([2]; HEK-293T) [%]	inhibition at 3 µM [2, 3] [%]	inhibition at 0.67 µM [2, 3] [%]	inhibition at […] ([2]; HEK-293T, 0.33 μM compound concentration (footnote *****), read-out: RORγt (FL) Reporter Assay A or B, % inhibition) [%]	inhibition at 1 µM ([2]; HEK-293T, 1 μM compound concentration (footnote ***), read-out: RORγt (FL) Reporter Assay A or B, % inhibition) [%]	SMILES
0.22	–	6	101	–	–	–	–	CCOC(=O)[C@]1(CNC(=O)c2nn(CC)c(-c3ccc(N[C@H](C)C(F)(F)F)cc3OC)c2Cl)CC[C@H](S(C)(=O)=O)CC1 (relative stereo) [Example 94, Ethyl (1s*,4S*)-1-((4-chloro-1-ethyl-5-(2-methoxy-4-(((R)-1,1,1-trifluoropropan-2-yl)amino)phenyl)-1H-pyrazole-3-carboxamido)methyl)-4-(methylsulfonyl)cyclohexane-1-carboxylate]
9	–	49	–	85	–	–	–	Cn1nc(C(=O)NC[C@@]2(O)CC[C@H](S(C)(=O)=O)C[C@@H]2O)c(Cl)c1-c1ccc(CC(C)(C)C(F)(F)F)cc1OC(F)F (relative stereo) [Example 153, 4-Chloro-5-(2-(difluoromethoxy)-4-(3,3,3-trifluoro-2,2-dimethylpropyl)phenyl)-N-(((1S*,2S*,4S*)-1,2-dihydroxy-4-(methylsulfonyl)cyclohexyl)methyl)-1-methyl-1H-pyrazole-3-carboxamide]
0.6	–	6	–	–	99	–	–	CCn1nc(C(=O)NC[C@H]2CC[C@H](S(C)(=O)=O)CC2)c(Cl)c1-c1ccc(C[C@@H](C)C(F)(F)F)cc1OC (single isomer, unassigned) [Example 1, 4-Chloro-1-ethyl-5-(2-methoxy-4-((R*)-3,3,3-trifluoro-2-methylpropyl)phenyl)-N-(((1r,4R)-4-(methylsulfonyl)cyclohexyl)methyl)-1H-pyrazole-3-carboxamide]
2.4	–	29	–	117	–	–	–	CCn1nc(C(=O)NC[C@]2(O)CC[C@@H](S(C)(=O)=O)C[C@H]2N)c(Cl)c1-c1ccc(CC(C)(C)C(F)(F)F)cc1OC(F)F (single isomer, unassigned) [Example 6, N-(((1R*,2R*,4R*)-2-Amino-1-hydroxy-4-(methylsulfonyl)cyclohexyl)methyl)-4-chloro-5-(2-(difluoromethoxy)-4-(3,3,3-trifluoro-2,2-dimethylpropyl)phenyl)-1-ethyl-1H-pyrazole-3-carboxamide Hydrobromide]
0.37	–	3.6	–	–	–	103	–	CCn1nc(C(=O)NC[C@H]2CC[C@H](S(C)(=O)=O)C[C@@H]2O)c(Cl)c1-c1ccc(CC(C)(C)C(F)(F)F)cc1OC(F)F (single isomer, unassigned) [Example 21, 4-Chloro-5-(2-(difluoromethoxy)-4-(3,3,3-trifluoro-2,2-dimethylpropyl)phenyl)-1-ethyl-N-(((1R*,2S*,4S*)-2-hydroxy-4-(methylsulfonyl)cyclohexyl)methyl)-H-pyrazole-3-carboxamide]
0.44	–	4.2	–	–	–	–	100	CCn1nc(C(=O)NC[C@@H]2CC[C@@H](S(C)(=O)=O)C[C@H]2O)c(Cl)c1-c1ccc(CC(C)(C)C(F)(F)F)cc1OC(F)F (single isomer, unassigned) [Example 22, 4-Chloro-5-(2-(difluoromethoxy)-4-(3,3,3-trifluoro-2,2-dimethylpropyl)phenyl)-1-ethyl-N-(((1S*,2R*,4R*)-2-hydroxy-4-(methylsulfonyl)cyclohexyl)methyl)-1H-pyrazole-3-carboxamide]
